Here are results for ten compounds from US10100056B2, “SHIP1 modulators and methods related thereto” (Aquinox Pharmaceuticals (Canada) Inc., priority 2013, dated 2018).

The test system of assay [1] is Akt phosphorylation in Molt-4 (PTEN-/SHIP1+) cells. In words: Akt phosphorylation in lymphocytes (Western blot, IGF-1 stimulated). Type of assay: cell-based. Details: key: +: inhibits Akt phosphorylation at 30 μM; −: no effect on Akt phosphorylation at 30 μM. The settings on record: 30 μM; Molt-4 (SHIP1+) cells, IGF-1 100 ng/mL. As to the method: Molt-4 (PTEN-/SHIP1+) cells are starved in serum free RPMI for overnight. In a 15 mL conical tube, 2-3 million serum starved cells (1 million cells per mL) are treated with various concentrations of test compound ([…]) for 30 min at 37° C. followed by stimulation with 100 ng/mL of IGF-1 for 1 hour at 37° C. After stimulation, cells are washed once with ice-cold DPBS and lysed with Lysis Buffer (20 mM Tris-HCl, pH 7.5, 140 mM NaCl, 1% NP-40, Complete Mini Protease Inhibitor Cocktail, 10 mM NaF, 1 mM Na3VO4, 1 mM β-glycerolphosphate) on ice for 30 min with vortexing every 10 min. Samples are then centrifuged at 13,000 rpm for 20 min, and supernatants are collected as total cell lysate samples. Protein concentration is determined using bicinchonic acid assay, and about 15 μg of total protein from each sample is loaded and separated on a 4-12% Tris-Glycine gel. After SDS-PAGE, proteins are transferred from the gel to a nitrocellulose membrane. The membrane is blocked in 5% BSA in PBS containing 0.1% Tween-20 (PBS-T) for 1 hour at room temperature before probing with primary antibodies for overnight at 4° C. The following antibodies are used: mouse anti-SHIP1 (1:500 dilution; Santa Cruz, Calif., USA), rabbit anti-phospho-Akt (Ser473) (1:1000 dilution; Cell Signaling Technologies, MA, USA), rabbit anti-Akt (1:1000; Cell Signaling Technologies, MA, USA), and rabbit anti-actin (1:2000; Cell Signaling Technologies, MA, USA). The membrane is then incubated with goat anti-rabbit or anti-mouse secondary antibodies (1:3000) for 1 hour at room temperature. Target proteins on the membrane are detected with ECL solution and exposed on a film.

Assay [2] addresses T1, His-hSHIP1 enzyme (Homo sapiens, UniProt Q92835).
T1 construct: His
T1 sequence (Q92835 1-1189): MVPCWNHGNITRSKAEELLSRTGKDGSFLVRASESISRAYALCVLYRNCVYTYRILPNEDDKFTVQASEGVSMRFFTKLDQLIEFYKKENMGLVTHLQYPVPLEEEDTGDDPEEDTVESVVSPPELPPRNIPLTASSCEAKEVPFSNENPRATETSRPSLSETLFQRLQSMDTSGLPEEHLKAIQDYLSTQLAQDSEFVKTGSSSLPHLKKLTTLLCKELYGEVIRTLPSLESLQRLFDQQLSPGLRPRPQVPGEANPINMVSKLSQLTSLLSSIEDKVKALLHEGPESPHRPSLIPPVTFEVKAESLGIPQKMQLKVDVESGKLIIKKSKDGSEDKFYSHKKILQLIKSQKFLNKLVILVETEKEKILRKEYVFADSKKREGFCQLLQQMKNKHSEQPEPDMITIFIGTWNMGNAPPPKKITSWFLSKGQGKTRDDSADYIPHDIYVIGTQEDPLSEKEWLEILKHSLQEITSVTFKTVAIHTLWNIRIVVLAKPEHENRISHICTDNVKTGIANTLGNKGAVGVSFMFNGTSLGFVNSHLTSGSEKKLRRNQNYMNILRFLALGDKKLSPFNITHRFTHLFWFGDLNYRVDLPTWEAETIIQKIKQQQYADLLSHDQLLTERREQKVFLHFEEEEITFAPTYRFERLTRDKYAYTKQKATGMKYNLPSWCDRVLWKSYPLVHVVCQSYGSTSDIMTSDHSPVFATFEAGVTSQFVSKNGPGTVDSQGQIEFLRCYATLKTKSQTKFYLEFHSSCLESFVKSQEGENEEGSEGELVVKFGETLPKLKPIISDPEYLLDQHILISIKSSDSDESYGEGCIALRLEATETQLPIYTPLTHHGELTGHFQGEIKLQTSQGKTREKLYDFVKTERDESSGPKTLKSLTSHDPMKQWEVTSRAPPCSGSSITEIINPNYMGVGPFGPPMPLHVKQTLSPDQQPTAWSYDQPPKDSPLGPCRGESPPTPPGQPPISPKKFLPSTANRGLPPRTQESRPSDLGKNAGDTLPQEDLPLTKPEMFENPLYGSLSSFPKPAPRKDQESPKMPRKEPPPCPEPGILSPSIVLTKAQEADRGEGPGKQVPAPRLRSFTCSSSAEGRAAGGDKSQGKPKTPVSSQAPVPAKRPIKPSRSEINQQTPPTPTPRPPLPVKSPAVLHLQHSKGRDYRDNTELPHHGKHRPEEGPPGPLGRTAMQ
In words: His-hSHIP1 activity (phosphatase assay, IP4 substrate, Biomol Green). Type of assay: biochemical. Also on record: key to Scoring, Approach 2 (Initial velocity Ratio): +++: higher than reference or reference - 15%; ++: reference - 16% to reference - 30%; +: reference - 31% or lower; −: inhibitor. The note with it: second approach: ratio of initial velocities IP4 25/250 μM compared with reference compound; values without asterisk. On the procedure:
Test compounds are dissolved in 95% ethanol to form stock solutions. Before screening, the stock solutions are diluted with Phosphatase Assay Buffer (20 mM Tris-HCL, 10 mM MgCl2 pH 7.5, 0.02% Tween 20) to form working assay solutions that contain 10% ethanol. The assay is carried out on 96-well microtiter plates using a modified procedure of that reported by Ong et al., Blood 110, 1942-1949, 2007 and Yang et al., Org Lett 7, 1073-1076, 2005, both of which references are incorporated herein by reference in their entirety.
Data were generated by one of two variant methods. Test compounds are screened by one of two approaches described as follows. In the first approach, each reaction contains 5 μL of His-hSHIP1 enzyme (5-20 ng), 10 μL of the substrate, 1,3,4,5-inositol tetrakisphosphate (IP4; 50 μM final), 5 μL of Phosphatase Assay Buffer, and 5 µL of test compound at various concentrations in 10% ethanol (0-300 μM final). Control blanks are also prepared by replacing His-hSHIP1 enzyme, IP4, or test compounds with Phosphatase Assay Buffer. After adding the reaction components in a 96-well microtiter plate on ice, the reaction is mixed by briefly shaking the plate vigorously. The reaction is then incubated at 37° C. for 15 min with gentle shaking followed by addition of 100 μL of Biomol Green Reagent (BIOMOL, PA, USA) to terminate the reaction. The free phosphate released from IP4 by His-hSHIP1 binds to the Biomol Green Reagent, which turns the dye to green color. After incubating the mixture for 20 min at room temperature for color development, the absorbance is read with SpectraMax Plus 96-well plate reader (Molecular Devices, Sunnyvale, Calif., USA) at a wavelength of 650 nm.
In the second approach, a master mix is prepared that contains 50 μL of His-hSHIP1 enzyme (0.4-1.6 ng/μL final), 25 μL of the substrate, IP4 (25 or 250 μM final), and 50 μL of test compound in 3.3% ethanol (100 μL final). Control blanks are also prepared by replacing His-hSHIP1 enzyme, IP4, or test compounds with Phosphate Assay Buffer. […] Each reaction component is preincubated at 37° C. for 30 min before adding to a 96-well microtiter plate. The master mix is then incubated at 37° C. At time 0, 20, and 30 min, 25 μL of the master mix is removed and transferred to a new 96-well microtiter plate, to which 100 μL of Biomol Green Reagent is added to stop the reaction. After incubating the mixture for 20 min at room temperature for color development, the absorbance is read with SpectraMax Plus 96-well plate reader at a wavelength of 650 nm. Phosphate released is plotted against time to calculate the initial velocities (i.e., slope of the graph) at each IP4 concentration. The initial velocities are baseline corrected and the ratio of initial velocities (IP425/IP4250) is calculated and used to rate the test compounds.

With `CC1(C)CCC2=C1CC[C@H]([C@@]1(C)CC[C@H](O)C[C@@H]1CO)[C@H]2CNC(=N)N.Cl` [Cpd. No. 1, 1-(((4R,5S)-5-((1R,2S,4S)-4-hydroxy-2-(hydroxymethyl)-1-methylcyclohexyl)-1,1-dimethyl-2,3,4,5,6,7-hexahydro-1H-inden-4-yl)methyl)guanidine hydrochloride], the “Molt-4 (SHIP+): inhibition of Akt phosphorylation” value (“Molt-4 (SHIP+): inhibition” below) in assay [1] is on record as “+”. Also, the “Scoring, Approach 2 (Initial velocity Ratio)” value in assay [2] is listed as “++”. Consider `C=C1CC[C@H]2[C@H](CNCc3ccc(OC)cc3)[C@@H]([C@@]3(C)CC[C@H](O)C[C@@H]3CO)CC[C@]12C` [Cpd. No. 18, (1S,3S,4R)-3-(hydroxymethyl)-4-((3aS,4R,5S,7aS)-4-((4-methoxybenzylamino)methyl)-7a-methyl-1-methyleneoctahydro-1H-inden-5-yl)-4-methylcyclohexanol], for which the “Molt-4 (SHIP+): inhibition” value in assay [1] is “+”. Moreover, the “Scoring, Approach 2 (Initial velocity Ratio)” value in assay [2] is listed as “+”. In the case of `C=C1CC[C@H]2[C@H](Cn3cncn3)[C@@H]([C@@]3(C)CC[C@H](O)C[C@@H]3CO)CC[C@]12C` [Cpd. No. 27, (1S,3S,4R)-4-((3aS,4R,5S,7aS)-4-((1H-1,2,4-triazol-1-yl)methyl)-7a-methyl-1-methyleneoctahydro-1H-inden-5-yl)-3-(hydroxymethyl)-4-methylcyclohexanol], the “Molt-4 (SHIP+): inhibition” value in assay [1] is on record as “−”. The “Scoring, Approach 2 (Initial velocity Ratio)” value in assay [2] is recorded as “+”. Consider `C=C1CC[C@H]2[C@H](O)[C@@H]([C@@]3(C)CC[C@H](O)C[C@@H]3CCN3CCOCC3)CC[C@]12C` [Cpd. No. 46, (3aR,4R,5R,7aS)-5-((1S,2S,4S)-4-hydroxy-1-methyl-2-(2-morpholinoethyl)cyclohexyl)-7a-methyl-1-methyleneoctahydro-1H-inden-4-ol], for which the “Molt-4 (SHIP+): inhibition” value in assay [1] is “+”. Moreover, the “Scoring, Approach 2 (Initial velocity Ratio)” value in assay [2] is given as “++”. Take `CC1(C)C=CC2=C1CC[C@H]([C@@]1(C)CC[C@H](O)C[C@@H]1CO)[C@H]2CO` [Cpd. No. 65, (1S,3S,4R)-3-(hydroxymethyl)-4-((4R,5S)-4-(hydroxymethyl)-1,1-dimethyl-4,5,6,7-tetrahydro-1H-inden-5-yl)-4-methylcyclohexanol]: the “Scoring, Approach 2 (Initial velocity Ratio)” value in assay [2] is listed as “++”. Still for that read-out and setting: then `CC1(C)C2=C(C[C@H]1O)[C@H](CO)[C@@H]([C@@]1(C)CC[C@H](O)C[C@@H]1CO)CC2` [Cpd. No. 66, (2R,4R,5S)-5-((1R,2S,4S)-4-hydroxy-2-(hydroxymethyl)-1-methylcyclohexyl)-4-(hydroxymethyl)-1,1-dimethyl-2,3,4,5,6,7-hexahydro-1H-inden-2-ol], with “+”.

Consider `C=C1CC[C@H]2[C@H](COCc3ccccc3)[C@@H]([C@@]3(C)CC[C@H](O)C[C@@H]3CO)CC[C@]12C` [Cpd. No. 67, (1S,3S,4R)-4-((3aS,4R,5S,7aS)-4-(benzyloxymethyl)-7a-methyl-1-methyleneoctahydro-1H-inden-5-yl)-3-(hydroxymethyl)-4-methylcyclohexanol], for which the “Scoring, Approach 2 (Initial velocity Ratio)” value in assay [2] is on record as “++”. Same read-out and setting: then `C=C1CC[C@H]2[C@H](CNC(=O)c3cccnc3)[C@@H]([C@@]3(C)CC[C@H](O)C[C@@H]3CO)CC[C@]12C` [Cpd. No. 69, N-(((3aS,4R,5S,7aS)-5-((1R,2S,4S)-4-hydroxy-2-(hydroxymethyl)-1-methylcyclohexyl)-7a-methyl-1-methyleneoctahydro-1H-inden-4-yl)methyl)nicotinamide], with “+”; and `C=C1CC[C@H]2[C@H](CNC(=O)NCc3ccccc3)[C@@H]([C@@]3(C)CC[C@H](O)C[C@@H]3CO)CC[C@]12C` [Cpd. No. 91, 1-benzyl-3-(((3aS,4R,5S,7aS)-5-((1R,2S,4S)-4-hydroxy-2-(hydroxymethyl)-1-methylcyclohexyl)-7a-methyl-1-methyleneoctahydro-1H-inden-4-yl)methyl)urea], with “+”. `C=C1CC[C@H]2[C@H](CCNC(=O)c3ccc4c(c3)OCO4)[C@@H]([C@@]3(C)CC[C@H](O)C[C@@H]3O)CC[C@]12C` [Cpd. No. 93, N-(2-((3aS,4S,5S,7aS)-5-((1R,2S,4S)-2,4-dihydroxy-1-methylcyclohexyl)-7a-methyl-1-methyleneoctahydro-1H-inden-4-yl)ethyl)benzo[d][1,3]dioxole-5-carboxamide]: the “Scoring, Approach 2 (Initial velocity Ratio)” value in assay [2] was “++”.
